Calls of active or inactive are those of the source. No cut-off for these calls is given here.
Legend:
[1] = Solubility of compound in culture media; type: physicochemical
Mesenchymal stem cells [2] = experiment: Cytotoxicity against human derived mesenchymal stem cells assessed as cell viability upto 20 uM measured after 4 days; type: toxicity, cell-based; conditions: 96 h, time 4 day
Mesenchymal stem cells [3] = experiment: Effect on cell cycle progression in human derived mesenchymal stem cells upto 20 uM measured after 4 days; type: toxicity, cell-based; conditions: 96 h, time 4 day
Mesenchymal stem cells [4] = experiment: Induction of neural differentiation in human derived mesenchymal stem cells assessed as neuron formation measured TuJI expression by immunohistochemical analysis; type: functional, cell-based; conditions: dose 2-5 µM
[5] = Induction of neural differentiation in human derived mesenchymal stem cells assessed as neuron formation at 5 uM measured TuJI expression by immunohistochemical analysis relative to control; type: functional

solubility [1] | SMILES | Activity (Mesenchymal stem cells [2]) | Activity (Mesenchymal stem cells [3]) | Activity (Mesenchymal stem cells [4]) | fold change (FC) [5] | Activity (Mesenchymal stem cells [4]; DDE = dose-dependent effect)
Soluble | CN1CCN(C(=O)NCc2csc(-c3ccccc3)n2)CC1 | Non-Toxic | Non-Toxic | Active |  | 
Soluble | O=C(NCc1csc(-c2ccccc2)n1)N1CCOCC1 | Non-Toxic | Non-Toxic |  | 2 | Dde
